Experimental data from patent publication EP0108351A2, “Use of substituted malonic-acid derivatives as pesticides” (BAYER AG, priority 1982, dated 1984).

Experiments:
Format in all cases: in vivo
Tetranychus urticae = assay: Tetranychus test (resistant), infested bean plants dipped; conditions: bean plants (Phaseolus vulgaris) dipped; all stages of mites; concentration and time not stated; compared with prior art
Description: Lösungsmittel: 3 Gewichtsteile Dimethylformamid Emulgator: . 1 Gewichtsteil Alkylarylpolyglykolether
(§1) Zur Herstellung einer zweckmäßigen Wirkstoffzubereitung vermischt man 1 Gewichtsteil Wirkstoff mit der angegebenen Menge Lösungsmittel und der angegebenen Menge Emulgator und verdünnt das Konzentrat mit Wasser auf die gewünschte Konzentration.
Bohnenpflanzen (Phaseolus vulgaris), die stark von allen Entwicklungsstadien der gemeinen Spinnmilbe oder Bohnenspinnmilbe (Tetranychus urticae) befallen sind, werden durch Tauchen in die Wirkstoffzubereitung der gewünschten Konzentration behandelt.
Nach der gewünschten Zeit wird die Abtötung in % bestimmt. Dabei bedeutet 100 %, daß alle Spinnmilben abgetötet wurden; 0 % bedeutet, daß keine Spinnmilben abgetötet wurden.

Myzus pesicae = assay: Limit concentration test / root-systemic action (Myzus); conditions: compound mixed into soil, cabbage; leaves infested after 7 days, evaluated after 2 more days; concentration not given
Description: Testinsekt: Myzus pesicae Lösungsmittel: 3 Gewichtsteile Aceton Emulgator: 1 Gewichtsteil Alkylarylpolyglykolether
(§2) Zur Herstellung einer zweckmäßigen Wirkstoffzubereitung vermischt man 1 Gewichtsteil Wirkstoff mit der angegebenen Menge Lösungsmittel, gibt die angegebene Menge Emulgator zu und verdünnt das Konzentrat mit Wasser auf die gewünschte Konzentration.
Die Wirkstoffzubereitung wird innig mit Boden vermischt. Dabei spielt die Konzentration des Wirkstoffs in der Zubereitung praktisch keine Rolle, entscheidend ist allein die Wirkstoffgewichtsmenge pro Volumeneinheit Boden, welche in ppm (= mg/1) angegeben wird. Man füllt den behandelten Boden in Töpfe und bepflanzt diese mit Kohl (Brassica oleracea). Der Wirkstoff kann so von den Pflanzenwurzeln aus dem Boden aufgenommen und in die Blätter transportiert werden.
Für den Nachweis des wurzelsystemischen Effektes werden nach 7 Tagen ausschließlich die Blätter mit den obengenannten Testtieren besetzt. Nach weiteren 2 Tagen erfolgt die Auswertung durch Zählen oder Schätzen der toten Tiere. Aus den Abtötungszahlen wird die wurzelsystemische Wirkung des Wirkstoffs abgeleitet. Sie ist 100 %, wenn alle Testtiere abgetötet sind und 0 %, wenn noch genau so viele Testinsekten leben wie bei der unbehandelten Kontrolle.

[1] = system: Phorbia antiqua (im Boden); assay: Limit concentration test / soil insects; conditions: compound mixed into soil; insects added after 24 hours, evaluated after 2 to 7 more days; concentration not given
Description: Testinsekt: Phorbia antiqua (im Boden) Lösungsmittel: 3 Gewichtsteile Aceton Emulgator: 1 Gewichtsteil Alkylarylpolyglykolether
as §2
Die Wirkstoffzubereitung wird innig mit dem Boden vermischt. Dabei spielt die Konzentration des Wirkstoffs in der Zubereitung praktisch keine Rolle, entscheidend ist allein die Wirkstoffgewichtsmenge pro Volumeneinheit Boden, welche in ppm (= mg/1) angegeben wird. Man füllt den Boden in Töpfe und läßt diese bei Raumtemperatur stehen.
Nach 24 Stunden werden die Testtiere in den behandelten Boden gegeben und nach weiteren 2 bis 7 Tagen wird der Wirkungsgrad des Wirkstoffs durch Auszählen der toten und lebenden Testinsekten in % bestimmt, Der Wirkungsgrad ist 100 %, wenn alle Testinsekten abgetötet worden sind, er ist O %, wenn noch genau so viele Testinsekten leben wie bei der unbehandelten Kontrolle.

Plutella maculipennis = assay: Plutella test (cabbage leaves dipped, caterpillars placed on them); conditions: cabbage leaves (Brassica oleracea) dipped; concentration and time not stated; compared with prior art
Description: Lösungsmittel: 3 Gewichtsteile Dimethylformamid Emulgator : -1 Gewichtsteil Alkylarylpolyglykolether
as §1
Kohlblätter (Brassica oleracea) werden durch Tauchen in die Wirkstoffzubereitung der gewünschten Konzentration behandelt und mit Raupen der Kohlschabe (Plutella maculipennis) besetzt, solange die Blätter noch feucht sind.
Nach der gewünschten Zeit wird die Abtötung in % bestimmt. Dabei bedeutet 100 %, daß alle Raupen abgetötet wurden; 0 % bedeutet, daß keine Raupen abgetötet wurden.

[2] = system: Lucilia cuprina res.-Larven; assay: Test with Lucilia cuprina res. larvae; conditions: Wirkstoffkonzentration 1000 ppm, after 24 hours, read-out: Abtötung
Procedure: Emulgator: 35 Gewichtsteile Ethylenglkolmonomethylether 35 Gewichtsteile Nonylphenolpolyglykolether
Zur Herstellung einer zweckmäßigen Wirkstoffzubereitung vermischt man drei Gewichtsteile Wirkstott mit sieben Gewichtsteilen des oben angegebenen Lösungsmittel-Gemisches und verdünnt das so erhaltene Konzentrat mit Wasser auf die jeweils gewünschte Konzentration.
Etwa 20 Lucilia cuprina res.-Larven werden in ein Teströhrchen gebracht, welches ca. 1 cm^2 Pferdefleisch und 0,5 ml der Wirkstoffzubereitung enthält. Nach 24 Stunden wird der Abtötungsgrad bestimmt.

SMILES	Wirksamkeit gegenüber dem Stand der Technik (Abtötung in %) (Tetranychus urticae)	wurzelsystemische Wirkung gegenüber dem Stand der Technik (Myzus pesicae)	Wirkungsgrad gegenüber dem Stand der Technik [1]	Wirksamkeit gegenüber dem Stand der Technik (Abtötung in %) (Plutella maculipennis)	mortality at 1000 µg/mL [2] [%]
COC(C(N)=O)(C(N)=O)c1ccc(Cl)c(Cl)c1 [Beispiel 1, 2-(3,4-Dichlorphenyl)-2-methoxy-malonsäurediamid]	überlegene Wirksamkeit gegenüber dem Stand der Technik	überlegene Wirkung gegenüber dem Stand der Technik	überlegene Wirkung gegenüber dem Stand der Technik	überlegene Wirksamkeit gegenüber dem Stand der Technik	–
NC(=O)C(OC(=O)c1ccccc1Cl)C(=O)Nc1ccc(Cl)c(Cl)c1 (centres unmarked) [Beispiel 2, 3,4-Dichlorphenyl-(2-chlorbenzoyloxy)-malonsäurediamid]	–	–	–	überlegene Wirksamkeit gegenüber dem Stand der Technik	–
NC(=O)C(OC(=O)c1ccccc1)(C(N)=O)c1ccc(Cl)c(Cl)c1 [Beispiel 3, 3,4-Dichlorphenylbenzoyloxymalonsäurediamid]	–	–	–	überlegene Wirksamkeit gegenüber dem Stand der Technik	–
CC(=O)OC(C(N)=O)(C(N)=O)c1ccc(Cl)c(Cl)c1 [Beispiel 4, 3,4-Dichlorphenylacetoxymalonsäurediamid]	–	–	–	überlegene Wirksamkeit gegenüber dem Stand der Technik	–
CNS(=O)(=O)OC(C(N)=O)(C(N)=O)c1ccc(Cl)c(Cl)c1 [Beispiel 5, 3,4-Dichlorphenylmethylsulfamoyloxymalonsäurediamid]	überlegene Wirksamkeit gegenüber dem Stand der Technik	–	–	überlegene Wirksamkeit gegenüber dem Stand der Technik	–
CNC(=O)C(O)(C(N)=O)c1ccccc1 (centres unmarked) [Beispiel 27, Phenylhydroxymalonsäureamidmethylamid]	–	überlegene Wirkung gegenüber dem Stand der Technik	–	–	–
NC(=O)C(O)(C(=O)[O-])c1ccccc1.[Na+] (centres unmarked) [Beispiel 33, Mononatriumsalzes des Phenylhydroxymalonsäuremonoamids]	–	überlegene Wirkung gegenüber dem Stand der Technik	–	–	–
NC(=O)C(OSC(F)(Cl)Cl)(C(N)=O)c1ccc(Cl)c(Cl)c1 [Beispiel 36, 3,4-Dichlorphenyl-dichlorfluormethylsulfenyloxy-malonsäurediamid]	überlegene Wirksamkeit gegenüber dem Stand der Technik	–	–	überlegene Wirksamkeit gegenüber dem Stand der Technik	–
NC(=O)C(O)(C(=O)NC=O)c1ccc(Cl)c(Cl)c1 (centres unmarked) [Beispiel 37, 3,4-Dichlorphenylhydroxymalonsäureamidformylamid]	überlegene Wirksamkeit gegenüber dem Stand der Technik	–	–	überlegene Wirksamkeit gegenüber dem Stand der Technik	–
CC(=O)NC(=O)C(O)(C(N)=O)c1ccccc1 (centres unmarked) [Beispiel 38, Phenylhydroxymalonsäureamidacetylamid]	–	–	–	überlegene Wirksamkeit gegenüber dem Stand der Technik	–
CC(=O)NC(=O)C(O)(C(N)=O)c1ccc(Cl)c(Cl)c1 (centres unmarked) [Beispiel 38a, 3,4-Dichlorphenylhydroxymalonsäureamidacetylamid]	–	–	überlegene Wirkung gegenüber dem Stand der Technik	überlegene Wirksamkeit gegenüber dem Stand der Technik	–
CC(=O)NC(=O)C(OC(C)=O)(C(N)=O)c1ccc(Cl)c(Cl)c1 (centres unmarked) [Beispiel 39, 3,4-Dichlorphenylacetoxy-malonsäureamidacetylamid]	überlegene Wirksamkeit gegenüber dem Stand der Technik	–	überlegene Wirkung gegenüber dem Stand der Technik	überlegene Wirksamkeit gegenüber dem Stand der Technik	–
CC(=O)NC(=O)C(OC(C)=O)(C(=O)NC(C)=O)c1ccc(Cl)c(Cl)c1 [Beispiel 40, 3,4-Dichlorphenyl-acetoxy-malonsäurebisacetylamid]	überlegene Wirksamkeit gegenüber dem Stand der Technik	–	überlegene Wirkung gegenüber dem Stand der Technik	überlegene Wirksamkeit gegenüber dem Stand der Technik	–
CC(=O)NC(=O)C(OC(=O)c1ccccc1)(C(=O)NC(C)=O)c1ccc(Cl)c(Cl)c1 [Beispiel 41, 3,4-Dichlorphenylbenzoyloxymalonsäurebisacetylamid]	überlegene Wirksamkeit gegenüber dem Stand der Technik	–	–	überlegene Wirksamkeit gegenüber dem Stand der Technik	–
C[Si](C)(C)OC(C(N)=O)(C(N)=O)c1ccc(Cl)c(Cl)c1 [Beispiel 47, 2-(3,4-Dichlorphenyl)-2-trimethylsilyloxy-malonsäurediamid]	überlegene Wirksamkeit gegenüber dem Stand der Technik	überlegene Wirkung gegenüber dem Stand der Technik	überlegene Wirkung gegenüber dem Stand der Technik	überlegene Wirksamkeit gegenüber dem Stand der Technik	100
C[Si](C)(C)NC(=O)C(O[Si](C)(C)C)(C(=O)N[Si](C)(C)C)c1ccc(Cl)c(Cl)c1 [Beispiel 48]	überlegene Wirksamkeit gegenüber dem Stand der Technik	–	überlegene Wirkung gegenüber dem Stand der Technik	überlegene Wirksamkeit gegenüber dem Stand der Technik	–
CC(C)(C)NC(=O)C(O)(C(=O)NC(C)(C)C)c1ccccc1 [Beispiel 52, Phenylhydroxymalonsäure-bis-tert.-butylamid]	–	überlegene Wirkung gegenüber dem Stand der Technik	–	–	–
